Measured values as given in article PMC5681660, “Reduced hepatitis B and D viral entry using clinically applied drugs as novel inhibitors of the bile acid transporter NTCP” (Scientific Reports, 2017).
Entries after “also recorded” stand apart in the source; their conditions may differ. Like-named read-outs stand apart in the source and are kept apart here.

Legend:
human NTCP [1] = biological target: T1, human NTCP (Homo sapiens, UniProt Q14973); assay: Myrcludex B-FITC binding by confocal microscopy in U2OS-HA-hNTCP cells; design: HA; expressed in transfected cells; conditions: for Myrcludex B-FITC fluorescence / binding to U2OS-HA-hNTCP cells (in words): co-administration with increasing amounts of drug; for ≥50% loss of Myrcludex B binding to hNTCP (concentration): confocal microscopy, 0.2 µM Myrcludex B-FITC, drug 1, 10, 100 µM, concentration at which binding inhibited minimally 50%
T1 sequence (Q14973 1-349): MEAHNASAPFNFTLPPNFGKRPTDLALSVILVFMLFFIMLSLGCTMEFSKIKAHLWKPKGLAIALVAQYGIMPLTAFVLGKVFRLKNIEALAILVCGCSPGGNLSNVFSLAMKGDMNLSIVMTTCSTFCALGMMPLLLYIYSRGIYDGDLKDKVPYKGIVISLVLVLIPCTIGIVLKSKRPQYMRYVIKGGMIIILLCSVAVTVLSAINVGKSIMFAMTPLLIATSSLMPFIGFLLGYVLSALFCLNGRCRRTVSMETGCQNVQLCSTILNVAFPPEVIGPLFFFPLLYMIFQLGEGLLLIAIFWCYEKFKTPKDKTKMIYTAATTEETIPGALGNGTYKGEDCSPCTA
Procedure: After 24 hours, medium was aspirated and cells were washed once with 300 µl Leibovitz’s L-15 Medium (Invitrogen). A 30 minute incubation period followed in which all cells were incubated with 0.2 µM Myrcludex B-FITC with or without drug (1, 10, 100 µM) and Hoechst (1/1000) in 300 µL Leibovitz’s L-15 Medium. Cells were washed twice with Leibovitz’s L-15 Medium and subsequently 400 µL Leibovitz’s L-15 Medium was added. Live cell fluorescent imaging was performed using a Leica SP8X-SMD confocal microscope with fully enclosed incubation at 37 °C. A 63x oil objective was used and images were captured while the cells were consecutively excited at 490 nm (FITC) 350 nm (Hoechst). ImageJ software (National Insititutes of Health, Bethesda, MD) was employed for data analysis.

in vitro = conditions: human
[2] = WST-1 cytotoxicity, wildtype U2OS cells; conditions: human; for viability at 2 h, 1 µM / viability at 2 h, 10 µM / viability at 2 h, 100 µM: wildtype U2OS cells
human NTCP [3] = biological target: T1, human NTCP; assay: Taurocholate uptake inhibition studies in U2OS-HA-hNTCP cells; format: cell-based; design: HA; expressed in transfected cells; conditions: for Taurocholate uptake into U2OS-HA-hNTCP cells (in words): increasing drug concentrations
Procedure: (§1) For MDCK or MDCK-hASBT cells 70.000 cells/well were plated in 24-well plates, followed by 24 hours 10 mM sodium butyrate (Sigma-Aldrich) stimulation the next day. Cells were used in the inhibition studies 24 hours (U2OS cell lines) or 48 hours (MDCK cell lines) later. Inhibition studies with mNTCP transiently transfected cells were conducted 48–72 hours after transfection.
(§2) Medium was aspirated from the wells and cells were washed once with 250 µL uptake buffer. Subsequently, cells were pre-incubated with drug in 150 µL uptake buffer for 10 minutes at 37 °C. Taurocholate uptake was initiated by addition of 100 µL uptake buffer containing taurocholate (final concentration 10 µM TC spiked with tritium-labeled TC) and cells were incubated for 2 minutes at 37 °C. Subsequently, cells were washed 4 times with ice-cold PBS and lysed with 0.05% SDS in water. Radioactivity was measured by liquid scintillation counting.

human NTCP [4] = biological target: T1, human NTCP; assay: Screening taurocholate uptake assay (96-well, [14C]taurocholate, 10 µM drug); conditions: for Ranking score: ranking over the functional and the binding screening assay; for B-score functional assay: screening taurocholate uptake, 10 µM drug
mouse NTCP = biological target: T2, mouse NTCP (Mus musculus, UniProt O08705); assay: Taurocholate uptake in U2OS cells transiently transfected with mouse NTCP; format: cell-based; conditions: at the calculated IC50 value for hNTCP
T2 construct: expressed in transfected cells; host or cells: U2OS (transient transfection, PEI)
T2 sequence (O08705 1-362): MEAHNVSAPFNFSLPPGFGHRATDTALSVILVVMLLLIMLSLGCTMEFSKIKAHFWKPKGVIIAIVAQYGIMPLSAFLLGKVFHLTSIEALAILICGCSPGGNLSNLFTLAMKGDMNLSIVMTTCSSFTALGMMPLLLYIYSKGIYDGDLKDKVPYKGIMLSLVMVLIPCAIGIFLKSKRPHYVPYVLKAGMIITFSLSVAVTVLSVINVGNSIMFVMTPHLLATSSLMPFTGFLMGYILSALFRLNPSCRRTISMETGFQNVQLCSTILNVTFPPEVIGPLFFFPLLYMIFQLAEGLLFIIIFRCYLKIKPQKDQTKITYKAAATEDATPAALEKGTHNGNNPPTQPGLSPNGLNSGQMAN
Procedure: (§3) U2OS and MDCK cells were grown in Dulbecco’s modified Eagle’s medium (DMEM, Sigma-Aldrich), supplemented with 10% FCS (Gibco), 1% L-glutamine (Lonza), and 1% penicillin/streptomycin (Lonza). […] Transient transfection of U2OS cells with mouse NTCP (mNTCP) was done with PEI reagent (Brunschwig, Basel, Switzerland). Shortly, U2OS cells were seeded one day prior to transfection in 24-well plates. On the day of transfection, 0.5 µg DNA was mixed with 100 µl unsupplemented DMEM and 3 µg/µl PEI. After 10–15 minute incubation at RT, 20 µl of the transfection mix was added to each 24-well. Transfected cells were used in further experiments 48–72 hours later. Cell lines were passaged twice a week at a confluence of 80%, and incubated in a humidified atmosphere of 37 °C + 5% CO2.
as §1, §2

U2OS-HA-hNTCP cells = conditions: 2 hours
U2OS cells = assay: WST-1 cytotoxicity, wildtype U2OS cells; conditions: U2OS cells, 2 hours
human ASBT = biological target: T3, human ASBT (Homo sapiens, UniProt Q12908); assay: Taurocholate uptake in MDCK-hASBT cells; format: cell-based; conditions: compared with NTCP
T3 construct: expressed in transfected cells; gift of Paul Dawson; induced with sodium butyrate
T3 sequence (Q12908 1-348): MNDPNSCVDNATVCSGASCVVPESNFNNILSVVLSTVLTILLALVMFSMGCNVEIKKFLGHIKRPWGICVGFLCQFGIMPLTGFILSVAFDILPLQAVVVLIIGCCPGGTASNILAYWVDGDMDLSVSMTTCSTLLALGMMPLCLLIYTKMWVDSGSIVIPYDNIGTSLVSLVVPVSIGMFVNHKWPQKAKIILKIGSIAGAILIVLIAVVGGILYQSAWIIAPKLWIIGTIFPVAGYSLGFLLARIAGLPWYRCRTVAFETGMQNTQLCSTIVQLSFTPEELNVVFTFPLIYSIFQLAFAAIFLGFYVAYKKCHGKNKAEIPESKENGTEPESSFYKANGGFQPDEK
Procedure: as §3, §1, §2

HDV = HDV infection of HepaRG cells (HDAg immunofluorescence); format: cell-based, hepatitis delta virus; conditions: HDAg positive cells, day 5; concentration-dependent
HBV = conditions: for HBV infection in HepaRG cells (in words): HBeAg, HBsAg, HBcAg, concentration-dependent; for number of HBcAg positive stained cells: HepaRG cells, day 10 post HBV infection, 50 µM
[5] = U2OS-HA-hNTCP cells, concentrations 1 nM to 10 mM, read-out: IC50 for hNTCP-mediated TC uptake
[6] = HepaRG cells infected with HBV, supernatant day 7 to 10

Row | Structure (SMILES) | Myrcludex B-FITC fluorescence / binding to U2OS-HA-hNTCP cells (in words) (human NTCP [1]) | ≥50% loss of Myrcludex B binding to hNTCP (concentration) (human NTCP [1]) | viability at 2 h, 1 µM (in vitro; U2OS-HA-hNTCP cells) [%] | viability at 2 h, 10 µM (in vitro; U2OS-HA-hNTCP cells) [%] | viability at 2 h, 100 µM (in vitro; U2OS-HA-hNTCP cells) [%] | viability at 2 h, 1 µM [2] [%] | viability at 2 h, 10 µM [2] [%] | viability at 2 h, 100 µM [2] [%] | IC50 (human NTCP [3]; [5]) [µM] | Taurocholate uptake into U2OS-HA-hNTCP cells (in words) (human NTCP [3]) | Ranking score (human NTCP [4]) | B-score functional assay (human NTCP [4]) | inhibition of mouse Ntcp-mediated taurocholate uptake compared with human NTCP (mouse NTCP) | HDV infection in HepaRG cells (in words) (HDV) | HBV infection in HepaRG cells (in words) (HBV) | also measured
1 | O=C(O)c1ccccc1Nc1cccc(C(F)(F)F)c1 [Flufenamic Acid, Flufenamic acid] | reduced Myrcludex B-FITC fluorescence | ≥100 µM | 125 ± 15.2 | 118 ± 9.6 | 107 ± 9.6 | 109 ± 9.1 | 108 ± 8.5 | 104 ± 3.6 | 10 | reduced in a dose-dependent fashion | 48.7852 | -5.588 | more capable of inhibiting mouse Ntcp; also recorded: more potent in inhibiting mouse NTCP | – | – | ≥50% loss of Myrcludex B binding to hNTCP (concentration) (human NTCP [1]; listed as Flufenamic acid): ≤ 100 µM
2 | Nc1c2c(nc3ccccc13)CCCC2O.O=C(O)/C=C\C(=O)O (centres unmarked) [Hydroxytacrine Maleate] | not | Not confirmed | – | – | – | – | – | – | 4200 | not | – | – | – | – | – | cell viability by WST-1 (U2OS-HA-hNTCP cells; 1 µM): 105.6 ± 1.2%; cell viability by WST-1 (U2OS-HA-hNTCP cells; 10 µM): 102 ± 8.3%; cell viability by WST-1 (U2OS-HA-hNTCP cells; 100 µM): 96.7 ± 5.9%; cell viability by WST-1 (U2OS cells; 1 µM): 107.6 ± 15.7%; cell viability by WST-1 (U2OS cells; 10 µM): 100.7 ± 7.1%; cell viability by WST-1 (U2OS cells; 100 µM): 95.8 ± 3.9%; outcome of follow-up screening of hits found in only one of the two screens (human NTCP [3]; follow-up of TC uptake and Myrcludex B binding): false positives
3 | CS(=O)(=O)O.Cc1c(O)cccc1C(=O)N[C@@H](CSc1ccccc1)[C@H](O)CN1C[C@H]2CCCC[C@H]2C[C@H]1C(=O)NC(C)(C)C [Nelfinavir Mesylate Hydrate] | reduced Myrcludex B-FITC fluorescence | ≥100 µM | – | – | – | – | – | – | 134 | reduced in a dose-dependent fashion | – | – | – | – | – | cell viability by WST-1 (U2OS-HA-hNTCP cells; 1 µM): 105.3 ± 7.1%; cell viability by WST-1 (U2OS-HA-hNTCP cells; 10 µM): 99.8 ± 5.2%; cell viability by WST-1 (U2OS-HA-hNTCP cells; 100 µM): 104.8 ± 4.5%; cell viability by WST-1 (U2OS cells; 1 µM): 105.9 ± 8.4%; cell viability by WST-1 (U2OS cells; 10 µM): 102 ± 10.7%; cell viability by WST-1 (U2OS cells; 100 µM): 95.1 ± 5.6%
4 | CN(CCOc1ccc(CC2SC(=O)NC2=O)cc1)c1ccccn1 (centres unmarked) [Rosiglitazone] | – | – | 111 ± 4.4 | 106 ± 4.5 | 103 ± 6 | 104 ± 7.2 | 107 ± 3.4 | 104 ± 2.5 | – | – | – | – | more capable of inhibiting mouse Ntcp; also recorded: more potent in inhibiting mouse NTCP | reduced HBV/HDV infection; also recorded: reduce | reduced HBV/HDV infection; also recorded: reduce | inhibition of ASBT-mediated taurocholate uptake (human ASBT): inhibited ASBT less effectively and at higher concentrations than observed for NTCP; also recorded: inhibit ASBT in a concentration-dependent fashion; concentration effective in reducing HBsAg (HBV; [6]): ≥ 50 µM; number of HBcAg positive stained cells (HBV): severely reduced; IC50 (human NTCP [3]): 5.1 µM
5 | O=C(O)Cc1cc(I)c(Oc2ccc(O)c(I)c2)c(I)c1 [TRIAC, 3,3′,5-Triiodothyroacetic acid] | – | – | – | – | – | 100 ± 7.5 | – | 81.6 ± 3.8 | – | – | – | – | – | reduced HBV/HDV infection; also recorded: reduce | reduced HBV/HDV infection; also recorded: reduce | number of HBcAg positive stained cells (HBV): mild reduction; viability at 2 h, 1 µM (in vitro): 109 ± 4.1%; viability at 2 h, 10 µM (in vitro): 105 ± 2.1%; viability at 2 h, 100 µM (in vitro): 86.3 ± 4.9%
6 | Cc1c(Cl)cccc1Nc1ccccc1C(=O)O [Tolfenamic Acid, Tolfenamic acid] | reduced Myrcludex B-FITC fluorescence | ≥100 µM | 116 ± 10.3 | 118 ± 13 | 107 ± 12.4 | – | – | – | 12.5 | reduced in a dose-dependent fashion | 28.5657 | -4.169 | inhibited similarly as human NTCP | – | – | ≥50% loss of Myrcludex B binding to hNTCP (concentration) (human NTCP [1]; listed as tolfenamic acid): ≤ 100 µM; viability at 1 µM [2]: 94.7 ± 6.3%; viability at 10 µM [2]: 105 ± 11.7%; viability at 100 µM [2]: 82.1 ± 4.8%
7 | Cc1cc(-n2c(=O)[nH]c(=O)n(C)c2=O)ccc1Oc1ccc(SC(F)(F)F)cc1 [Toltrazuril] | reduced Myrcludex B-FITC fluorescence | ≥10 µM | 100 ± 9.9 | 109 ± 12.9 | 105 ± 11.4 | 115 ± 6.1 | 109 ± 11.8 | 101 ± 3.6 | 84.1 | reduced in a dose-dependent fashion | 35.4965 | -3.14 | – | – | – | –
8 | CCCCC1=NC2(CCCC2)C(=O)N1Cc1ccc(-c2ccccc2-c2nnn[nH]2)cc1 [irbesartan, reference compound] | – | – | – | – | – | – | – | – | – | – | 197.737 | -3.733 | – | reduce | reduce | concentration effective in reducing HBeAg and HBsAg production (HBV; [6]): 17 µM; NTCP inhibition in the screen (in words) (human NTCP [4]; 10 µM, both screening assays): confirmed NTCP inhibition; position among the hits of the screen (combined ranking of both screening assays) (human NTCP [4]; 1280 drugs at 10 µM, TC uptake and Myrcludex B binding screens combined): ≤ 150
